Experimental data reported in ChEMBL document CHEMBL3045871, “Synthesis, biological screening and ADME prediction of benzylindole derivatives as novel anti-HIV-1, anti-fungal and anti-bacterial agents” (Med Chem Res, 2013).
Activity calls are given as the source filed them. The rule behind the calls is not given here.

test system: Penicillium chrysogenum; assay: Antifungal activity against Penicillium chrysogenum; assay type: functional, organism-based

| Structure (SMILES) | Activity |
| --- | --- |
| CCOC(=O)/C(O)=C/C(=O)c1cn(Cc2ccc(Cl)cc2Cl)c2ccc(OC)c(OC)c12 | Active |
| CCOC(=O)/C(O)=C/C(=O)c1cn(Cc2ccc(Cl)cc2Cl)c2cc(OC)cc(OC)c12 | Active |
| CCOC(=O)/C(O)=C/C(=O)c1cn(Cc2ccc(Cl)cc2Cl)c2c(OC)ccc(OC)c12 | Active |

test system: Candida albicans; assay: Antifungal activity against Candida albicans; assay type: functional, organism-based

| Structure (SMILES) | Activity |
| --- | --- |
| CCOC(=O)/C(O)=C/C(=O)c1cn(Cc2ccc(Cl)cc2Cl)c2cc(OC)c(OC)cc12 | Active |
| CCOC(=O)/C(O)=C/C(=O)c1cn(Cc2ccc(Cl)cc2Cl)c2cc(OC)cc(OC)c12 | Active |
| CC(=O)N1CCN(c2ccc(OCC3COC(Cn4ccnc4)(c4ccc(Cl)cc4Cl)O3)cc2)CC1 (centres undefined) | Active |
| CCOC(=O)/C(O)=C/C(=O)c1cn(Cc2ccc(Cl)cc2Cl)c2c(OC)ccc(OC)c12 | Active |

test system: Aspergillus fumigatus; assay: Antifungal activity against Aspergillus fumigatus; assay type: functional, organism-based

| Structure (SMILES) | Activity |
| --- | --- |
| CCOC(=O)/C(O)=C/C(=O)c1cn(Cc2ccc(Cl)cc2Cl)c2cc(OC)c(OC)cc12 | Active |
| CC(=O)N1CCN(c2ccc(OCC3COC(Cn4ccnc4)(c4ccc(Cl)cc4Cl)O3)cc2)CC1 (centres undefined) | Active |
| CCOC(=O)/C(O)=C/C(=O)c1cn(Cc2ccc(Cl)cc2Cl)c2c(OC)ccc(OC)c12 | Active |

test system: Bacillus subtilis; assay: Antibacterial activity against Bacillus subtilis; assay type: functional, organism-based

| Structure (SMILES) | Activity |
| --- | --- |
| CCOC(=O)/C(O)=C/C(=O)c1cn(Cc2ccc(Cl)cc2Cl)c2cc(OC)c(OC)cc12 | Active |
| CCOC(=O)/C(O)=C/C(=O)c1cn(Cc2ccc(Cl)cc2Cl)c2ccc(OC)c(OC)c12 | Active |
| CCOC(=O)/C(O)=C/C(=O)c1cn(Cc2ccc(Cl)cc2Cl)c2cc(OC)cc(OC)c12 | Active |

test system: Salmonella typhi; assay: Antibacterial activity against Salmonella enterica subsp. enterica serovar Typhi; assay type: functional, organism-based

| Structure (SMILES) | Activity |
| --- | --- |
| CCOC(=O)/C(O)=C/C(=O)c1cn(Cc2ccc(Cl)cc2Cl)c2c(OC)ccc(OC)c12 | Active |

test system: Aspergillus niger; assay: Antifungal activity against Aspergillus niger; assay type: functional, organism-based

| Structure (SMILES) | Activity |
| --- | --- |
| CCOC(=O)/C(O)=C/C(=O)c1cn(Cc2ccc(Cl)cc2Cl)c2ccc(OC)c(OC)c12 | Active |
| CCOC(=O)/C(O)=C/C(=O)c1cn(Cc2ccc(Cl)cc2Cl)c2c(OC)ccc(OC)c12 | Active |

biological target: Human immunodeficiency virus type 1 reverse transcriptase (Human immunodeficiency virus 1) (UniProt Q72547); assay: Inhibition of Human immunodeficiency virus 1 RT assessed at 20 ug after 1 hr by spectrophotometric analysis

| Structure (SMILES) | inhibition |
| --- | --- |
| COc1cc(OC)c2c(C(=O)/C=C(\O)C(=O)O)cn(Cc3ccc(Cl)cc3Cl)c2c1 | 79.2% |
| CCOC(=O)/C(O)=C/C(=O)c1cn(Cc2ccc(Cl)cc2Cl)c2cc(OC)c(OC)cc12 | 80.9% |
| CCOC(=O)/C(O)=C/C(=O)c1cn(Cc2ccc(Cl)cc2Cl)c2ccc(OC)c(OC)c12 | 87.7% |
| COc1ccc2c(c(C(=O)/C=C(\O)C(=O)O)cn2Cc2ccc(Cl)cc2Cl)c1OC | 78.2% |
| CCOC(=O)/C(O)=C/C(=O)c1cn(Cc2ccc(Cl)cc2Cl)c2cc(OC)cc(OC)c12 | 87.6% |
| COc1cc2c(C(=O)/C=C(\O)C(=O)O)cn(Cc3ccc(Cl)cc3Cl)c2cc1OC | 78.6% |
| CCOC(=O)/C(O)=C/C(=O)c1cn(Cc2ccc(Cl)cc2Cl)c2c(OC)ccc(OC)c12 | 86.5% |
| COc1ccc(OC)c2c1c(C(=O)/C=C(\O)C(=O)O)cn2Cc1ccc(Cl)cc1Cl | 82.8% |
